Test results: ChEMBL document CHEMBL6078721, “Structurally diverse chromane meroterpenoids from Rhododendron capitatum with multifunctional neuroprotective effects” (Eur J Med Chem, 2025)
The source made the active and inactive calls. The rule behind the calls is not given here.

Columns and labels:
[1] = system: PC-12; test: Neuroprotective activity against 6-OHDA-induced neurotoxicity in rat PC-12 cells at 5 to 40 uM incubated for 24 hrs by MTT assay; format: functional, cell-based; details: dose 5-40 µM
[2] = system: PC-12; test: Neuroprotective activity against H2O2-induced neurotoxicity in rat PC-12 cells at 5 to 40 uM incubated for 24 hrs by MTT assay; format: functional, cell-based; details: dose 5-40 µM
[3] = system: BV-2; test: Anti-inflammatory activity against mouse BV-2 cells assessed as inhibition of LPS-induced NO production pretreated for 3 hrs followed by LPS addition measured after 24 hrs by Griess reagent based assay; format: functional, cell-based
[4] = system: PC-12; test: Neuroprotective activity against H2O2-induced neurotoxicity in rat PC-12 cells assessed as increase in catalase level at 2.5 to 40 uM by Western blot analysis; format: functional, cell-based; details: dose 2.5-40 µM
[5] = system: BV-2; test: Anti-inflammatory activity against mouse BV-2 cells assessed as inhibition of LPS-induced NF-kappaB p65 phosphorylation pretreated for 3 hrs followed by LPS addition measured after 24 hrs by Western blot analysis; format: functional, cell-based; details: dose 3-30 µM, time 27.0 hrs
[6] = system: BV-2; test: Anti-inflammatory activity against mouse BV-2 cells assessed as inhibition of LPS-induced JNK activation at 30 uM pretreated for 3 hrs followed by LPS addition measured after 24 hrs; format: functional, cell-based; details: time 27.0 hrs
[7] = system: PC-12; test: Neuroprotective activity against H2O2-induced neurotoxicity in rat PC-12 cells assessed as increase in HO-1 level at 2.5 to 40 uM by Western blot analysis; format: functional, cell-based; details: dose 2.5-40 µM
[8] = system: BV-2; test: Anti-inflammatory activity against mouse BV-2 cells assessed as reduction in LPS-induced COX-2 expression pretreated for 3 hrs followed by LPS addition measured after 24 hrs by Western blot analysis; format: functional, cell-based; details: dose 3-30 µM, time 27.0 hrs
[9] = system: Caenorhabditis elegans; test: Antialzheimer activity in transgenic Caenorhabditis elegans CL4176 expressing human amyloid-beta peptide assessed as decrease in paralysis rate at 12.5 uM incubated for 14 hrs relative to control; format: functional; design: scale not given: the % may be the effect or the level left
[10] = system: BV-2; test: Anti-inflammatory activity against mouse BV-2 cells assessed as reduction in LPS-induced iNOS expression pretreated for 3 hrs followed by LPS addition measured after 24 hrs by Western blot analysis; format: functional, cell-based; details: dose 3-30 µM, time 27.0 hrs
[11] = system: Caenorhabditis elegans; test: Antioxidant activity in Caenorhabditis elegans CL4176 expressing human amyloid-beta peptide assessed as decrease in ROS level at 50 uM incubated for 7 days by H2DCF-DA probe based analysis relative to control; format: functional; design: scale not given: the % may be the effect or the level left; details: time 7 day
[12] = system: PC-12; test: Neuroprotective activity against H2O2-induced neurotoxicity in rat PC-12 cells incubated for 24 hrs by MTT assay; format: functional, cell-based; details: dose 5-40 µM
[13] = system: BV-2; test: Anti-inflammatory activity against mouse BV-2 cells assessed as inhibition of LPS-induced NF-kappaB p65 nuclear entry at 3 to 30 uM pretreated for 3 hrs followed by LPS addition measured after 24 hrs by Western blot analysis; format: functional, cell-based; details: dose 3-30 µM, time 27.0 hrs
[14] = system: BV-2; test: Anti-inflammatory activity against mouse BV-2 cells assessed as reduction in LPS-induced COX-2 expression pretreated for 3 hrs followed by LPS addition measured after 24 hrs by immunofluorescence based analysis; format: functional, cell-based; details: dose 3-30 µM
[15] = system: Caenorhabditis elegans; test: Antialzheimer activity in transgenic Caenorhabditis elegans CL4176 expressing human amyloid-beta peptide assessed as decrease in paralysis rate at 25 uM incubated for 14 hrs; format: functional, organism-based
[16] = system: PC-12; test: Induction of neuronal differentiation in rat PC-12 cells at 10 uM incubated for 48 hrs by microscopic analysis; format: functional, cell-based
[17] = system: PC-12; test: Induction of neuronal differentiation in rat PC-12 cells assessed as increase in neurite bearing cells incubated for 48 hrs in presence of NGF by microscopic analysis; format: functional, cell-based; details: dose 1-10 µM
[18] = Induction of neuronal differentiation in rat PC-12 cells assessed as neurite growth by measuring fold change at 10 uM incubated for 48 hrs in presence of NGF by microscopic analysis relative to NGF; format: functional
[19] = Induction of neuronal differentiation in rat PC-12 cells assessed as neurite growth at 10 uM incubated for 48 hrs in presence of NGF by microscopic analysis (reference value: 8.39 +/- 0.03 %); format: functional
[20] = system: BV-2; test: Anti-inflammatory activity against mouse BV-2 cells assessed as inhibition of LPS-induced p-JNK activation at 30 uM pretreated for 3 hrs followed by LPS addition measured after 24 hrs; format: functional, cell-based; details: time 27.0 hrs

For `C=C(C)[C@@H]1CC[C@]2(C)Oc3cc(C)cc(O)c3C[C@H]12`, the Activity [1] was “Active; Activity Was Comparable To That Of Ngf”, the Activity [2] was “Active; Activity Was Comparable To That Of Ngf” and the IC50 [3] was over 30 µM.
With `CC(C)=CC(=O)C[C@]1(C)Oc2cc(C)cc3c2[C@H]2C[C@](C)(CC[C@H]21)O3` the Activity [4] was “Active; Exhibited More Activity Than That Of Positive Group”, the inhibition [5] was “Dose-dependent-effect” and the inhibition [6] was “Active; Activity Was Comparable To That Of Quercetin”. For the same compound, the Activity [7] was “Active; Exhibited More Activity Than That Of Positive Group”, the Activity [8] was “Active” and the Activity [9] was about 20%. The Activity [1] was “Active; Activity Was Comparable To That Of Ngf”, the Activity [10] was “Active” and the Activity [2] was “Active; Activity Was Comparable To That Of Ngf”. The Activity [11] was “>=15.2%” and the IC50 [3] was 15.7 µM.
In the case of `C=C(C)[C@@H](O)CC/C(C)=C/CC[C@@]1(C)C=Cc2c(O)cc(C)cc2O1`, the IC50 [3] is reported as 25.2 µM.
`C/C(=C/CC/C(C)=C/CC[C@@]1(C)C=Cc2c(O)cc(C)cc2O1)CO` showed an IC50 [3] of 11.3 µM.
In the case of `C=C(C)[C@H](O)CC[C@@]1(C)[C@@H]2CC[C@]3(C)Oc4cc(C)cc(O)c4[C@H]1[C@H]23`, the Activity [1] is reported as “Active; Activity Was Comparable To That Of Ngf”, the Activity [2] is reported as “Active; Activity Was Comparable To That Of Ngf” and the IC50 [3] is reported as 22.1 µM.
For `C=C(C)[C@@H](O)CC[C@@]1(C)[C@@H]2CC[C@]3(C)Oc4cc(C)cc(O)c4[C@H]1[C@H]23`, the Activity [1] was “Active; Capable Of Rescuing Cell Injury To Greater Extent”.
In the case of `CC(C)=CC(=O)[C@@H]1[C@H]2c3c(O)cc(C)cc3O[C@@]3(C)CCC[C@]1(C)[C@@H]23`, the Activity [12] is reported as “Dose-dependent-effect; Activity Was Comparable To That Of Ngf”, the inhibition [13] is reported as “Active; Exhibited Mild Inhibition” and the Activity [14] is reported as “Dose-dependent-effect”. For the same compound, the inhibition [6] was “Active; Activity Was Comparable To That Of Quercetin”, the Activity [8] was “Dose-dependent-effect; Exhibited More Potency Than Quercetin” and the Activity [15] was “Active; Activity Was Comparable With Quercetin At 50 Um”. For the same compound, the Activity [1] was “Active; Activity Was Comparable To That Of Ngf”, the Activity [10] was “Dose-dependent-effect; Exhibited More Potency Than Quercetin” and the Activity [11] was “>=18.7%”. For the same compound, the IC50 [3] was 17.5 µM.
In the case of `C/C(=C\CC[C@@]1(C)C=Cc2c(O)cc(C)cc2O1)CC(=O)CC(C)C`, the IC50 [3] is reported as 21.3 µM.
Compound `O=c1c(O)c(-c2ccc(O)c(O)c2)oc2cc(O)cc(O)c12` [QUERCETIN] has an IC50 [3] of 11.8 µM.
With `Cc1cc(O)c2c(c1)O[C@@]1(C)CCC[C@@]3(C)[C@H](C(=O)CC(C)C)[C@@H]2[C@H]31` the Activity [16] was “Active”, the Activity [17] was “Dose-dependent-effect” and the Activity [1] was “Active; Capable Of Rescuing Cell Injury To Greater Extent”. The Activity [2] was “Active” and the IC50 [3] was 28.2 µM.
`C/C(=C\Cc1c(O)cc(C)cc1O)CC/C=C(\C)CC(=O)CC(C)C` showed an IC50 [3] of 20 µM.
For `COC(C)(C)C/C=C/C(C)=C/CC[C@@]1(C)C=Cc2c(O)cc(C)cc2O1`, the “fold change (FC)” value [18] was about 3, the Activity [16] was “Active” and the Activity [19] was 22.93%. The Activity [17] was “Dose-dependent-effect”.
For `CC(C)=CC[C@H](O)/C(C)=C/CC[C@@]1(C)C=Cc2c(O)cc(C)cc2O1`, the Activity [16] was “Active”, the Activity [17] was “Dose-dependent-effect” and the IC50 [3] was 19.9 µM.
With `C/C(=C\CC/C(C)=C/CC[C@@]1(C)C=Cc2c(O)cc(C)cc2O1)CO` the inhibition [20] was “Active; Exhibited Mild Inhibition”, the Activity [8] was “Dose-dependent-effect” and the Activity [10] was “Dose-dependent-effect”. The IC50 [3] was 15.8 µM.
With `COC(C)(C)CC(=O)[C@@H]1[C@H]2c3c(O)cc(C)cc3O[C@@]3(C)CCC[C@]1(C)[C@@H]23` the Activity [16] was “Active”, the Activity [17] was “Dose-dependent-effect” and the Activity [1] was “Active; Activity Was Comparable To That Of Ngf”. The Activity [2] was “Active; Activity Was Comparable To That Of Ngf”.
In the case of `Cc1cc(O)c2c(c1)O[C@@]1(C)CC[C@@H](C(C)(C)O)[C@@H]2C1`, the Activity [1] is reported as “Active; Capable Of Rescuing Cell Injury To Greater Extent”.
For `CC(C)=CCC/C(C)=C/CC/C(C)=C/Cc1c(O)cc(C)cc1O` [GRIFOLIN], the Activity [4] was “Active”, the Activity [7] was “Active” and the IC50 [3] was 18.9 µM.
In the case of `Cc1cc(O)c2c(c1)O[C@@]1(C)CC[C@H]3O[C@@H]2[C@@H]1C3(C)C`, the “fold change (FC)” value [18] is reported as about 3, the Activity [16] is reported as “Active” and the Activity [19] is reported as 21.85%. The Activity [17] was “Dose-dependent-effect”, the Activity [1] was “Active; Activity Was Comparable To That Of Ngf” and the Activity [2] was “Active; Activity Was Comparable To That Of Ngf”. For the same compound, the IC50 [3] was over 30 µM.
